Structures are written as SMILES.

One data set deals with T1, Aromatase (Homo sapiens, UniProt P11511).
T1 sequence (P11511 whole entry): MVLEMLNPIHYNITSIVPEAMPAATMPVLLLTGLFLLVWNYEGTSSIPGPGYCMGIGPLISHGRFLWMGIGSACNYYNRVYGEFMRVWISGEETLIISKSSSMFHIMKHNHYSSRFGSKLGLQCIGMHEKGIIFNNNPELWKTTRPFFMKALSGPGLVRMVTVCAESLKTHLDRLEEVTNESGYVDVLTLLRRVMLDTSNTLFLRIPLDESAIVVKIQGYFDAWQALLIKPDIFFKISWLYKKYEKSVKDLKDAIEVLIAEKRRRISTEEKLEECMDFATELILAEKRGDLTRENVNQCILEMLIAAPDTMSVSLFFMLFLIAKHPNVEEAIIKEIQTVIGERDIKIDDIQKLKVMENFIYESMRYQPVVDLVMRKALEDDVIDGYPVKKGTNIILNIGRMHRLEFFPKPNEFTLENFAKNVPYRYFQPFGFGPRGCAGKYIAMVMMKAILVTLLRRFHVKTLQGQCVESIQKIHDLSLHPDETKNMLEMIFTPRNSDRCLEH
The experiment in a line: Inhibition of human recombinant aromatase using 7-methoxy-4-trifluoromethyl coumarin as substrate by fluorimetric analysis.
For orientation: IC50 means the concentration that inhibits the measured activity by half. With `Cc1cc(C)c(S(=O)(=O)NCCCn2ccnc2)cc1C`, the IC50 was 172 nM.

Take `COc1cc(Cl)c(S(=O)(=O)NCCCn2ccnc2)cc1Cl`: the IC50 came out at 63.7 nM.

`Cc1ccc(C(=O)NCCCn2ccnc2)cn1`: the IC50 is 10600 nM.

On to `Cc1ccc(C(=O)NCCCn2ccnc2)cc1[N+](=O)[O-]`, for which the IC50 turned out to be 1000 nM.

With `C=CCN(c1ccc(C(=O)NCCCn2ccnc2)cc1)S(C)(=O)=O`, the IC50 is 2500 nM.

`O=S(=O)(NCCCn1ccnc1)c1ccc2c(c1)OCCO2`: the IC50 was found to be 119 nM.

In the case of `COc1ccc2c(c1)OC1(CCN(C(=O)Cn3cncn3)CC1)CC2=O`, the IC50 was 5790 nM.

As to `O=C(CCn1ccnc1)NC[C@H]1CC[C@H](c2ncncc2-c2ccccn2)CC1`, the IC50 was determined as 3100 nM.

`O=C(Cn1ccnc1)Nc1ccccc1Oc1ccc(F)cc1`: the IC50 stood at 248 nM.

As for `COc1cc2c(cc1-c1cncn1CCCn1ccnc1C)OCCCO2`, the IC50 was 498 nM.

`CCOc1ccc(S(=O)(=O)NCCCn2ccnc2)c2ccccc12`: the IC50 is 761 nM.

In the case of `COc1ccc(S(=O)(=O)NCCCn2ccnc2)cc1C`, the IC50 amounted to 61.6 nM.

Consider `COc1ccc(S(=O)(=O)NCCCn2ccnc2)cc1C(C)(C)C`, for which the IC50 worked out at 440 nM.

`COc1ccc(S(=O)(=O)NCCCn2ccnc2)cc1F`: the IC50 amounted to 100 nM.

Take `CC(C)(C(=O)Nc1ccccc1Oc1ccc(F)cc1)n1cncn1`: the IC50 turned out to be 13200 nM.

For the molecule `CC1(C)Oc2ccc(S(=O)(=O)NCCCn3ccnc3)cc2NC1=O`, the IC50 was found to be 499 nM.

As to `O=C(C(=Cc1ccccc1)n1cncn1)c1ccc(Cl)cc1Cl` (mixture of isomers), the IC50 stood at 441 nM.

On to `COc1ccc(C(=O)OC(COc2ccccc2)Cn2ccnc2)cc1` (racemic), for which the IC50 is 16.5 nM.

Regarding `O=c1oc2cc(OCC(O)Cn3cncn3)ccc2c2c1CCC2` (racemic), the IC50 stood at 21700 nM.

Take `COc1cc(CC(=O)N2CCOC(Cn3ccnc3)C2)cc(OC)c1OC` (racemic): the IC50 was 59.2 nM.

`O=C(Cn1cncn1)NC(CCc1ccccc1)c1ccc2c(c1)OCCO2` (racemic): the IC50 was found to be 991 nM.

As for `CCc1[nH]c2ccc(C(=O)NCC(C)n3cncn3)cc2c1C` (racemic), the IC50 turned out to be 10600 nM.

For `CC(CNC(=O)c1cc2c([nH]c1=O)CCCCC2)n1cncn1` (racemic), the half-inhibitory concentration (IC50) is more than 25000 nM.

With `Cc1ncc(CNc2ccc(OCC(O)Cn3ccnc3)cc2)cn1` (racemic), the IC50 came to 3500 nM.

On to `COc1ccc(C(C)NC(=O)c2ccccc2Cn2cncn2)cc1F` (racemic), for which the IC50 turned out to be 3100 nM.

Turning to `COc1ccc(S(=O)(=O)N2CCCC(Cn3ccnc3)C2)cc1C(C)(C)C` (racemic), the IC50 was determined as 9.4 nM.

Consider `COc1ccc(S(=O)(=O)N2CCOC(Cn3ccnc3)C2)cc1` (racemic), for which the IC50 is 78.8 nM.

On to `CC(=O)c1ccc(S(=O)(=O)N2CCOC(Cn3ccnc3)C2)cc1` (racemic), for which the IC50 was determined as 66.5 nM.

Take `O=C(Cc1ccc(F)cc1)N1CCOC(Cn2ccnc2)C1` (racemic): the IC50 amounted to 34.5 nM.

Consider `O=C(Cc1ccc2c(c1)OCO2)N1CCOC(Cn2ccnc2)C1` (racemic), for which the IC50 amounted to 46.7 nM.

Tested on in a further data set: not listed separately
The experiment in a line: Solubility of the compound. It is filed as physicochemical.
As to `COc1cc2sc(NC(=O)c3ccccc3Cn3cncn3)nc2cc1Cl`, the solubility entry is recorded as “Insoluble”.

The target of a further data set is T1, Aromatase. In words: Inhibition of human recombinant aromatase using 7-methoxy-4-trifluoromethyl coumarin as substrate at 25 uM by fluorimetric analysis.
`CC(C)(C)C(Cn1ccnc1)NC(=O)c1cc(N2CCOCC2)nc2ccccc12` (racemic): the “inhibition (INH)” value was “Not Active”.
